Measurements: ChEMBL document CHEMBL4177667, “Design, synthesis, and anticancer properties of isocorydine derivatives” (Bioorg Med Chem, 2017)
≈ marks a conversion by molar mass, not a printed value. Calls of active or inactive are those of the source. The calls are words filed in the database; no cut-off is given here.

Assays:
SMMC-7721 = test: Antiproliferative activity against human SMMC7721 cells after 48 hrs by MTT assay; assay type: functional, cell-based; conditions: SMMC-7721, 48 h
HepG2 [1] = test: Induction of apoptosis in human HepG2 cells assessed as early apoptotic cells at 10 ug/ml after 24 hrs by Annexin V-FITC/propidium iodide staining-based flow cytometric analysis (reference value: 0.18%); assay type: functional
HepG2 [2] = test: Synergistic growth inhibition against human HepG2 cells assessed as fold change in sorafenib IC50 at 5 ug/ml after 24 hrs by MTT assay; assay type: functional
HepG2 [3] = test: Synergistic growth inhibition against human HepG2 cells assessed as fold change in sorafenib IC50 at 2.50 ug/ml after 24 hrs by MTT assay; assay type: functional
H22 [4] = test: Antitumor activity against mouse H22 cells implanted in mouse assessed as tumor growth inhibition at 50 mg/kg, ip qd administered for 10 consecutive days measured after 24 hrs post last dose relative to control; assay type: functional; conditions: read-out: TGI
HepG2 [5] = test: Synergistic induction of apoptosis in human HepG2 cells assessed as necrotic cells at 10 ug/ml after 24 hrs in presence of sorafenib by Annexin V-FITC/propidium iodide staining-based flow cytometric analysis (reference value: 0%); assay type: functional
HepG2 [6] = test: Synergistic induction of apoptosis in human HepG2 cells assessed as early apoptotic cells at 10 ug/ml after 24 hrs in presence of sorafenib by Annexin V-FITC/propidium iodide staining-based flow cytometric analysis (reference value: 0.18%); assay type: functional
HepG2 [7] = test: Synergistic downregulation of cyclin D1 protein levels in human HepG2 cells at 10 ug/ml after 48 hrs in presence of sorafenib by Western blot analysis; assay type: functional, cell-based
H22 [8] = test: Synergistic antitumor activity against mouse H22 cells implanted in mouse assessed as tumor growth inhibition at 150 mg/kg, ip or ig qd administered for 10 consecutive days measured after 24 hrs post last dose in presence of sorafenib relative to control; assay type: functional; conditions: read-out: TGI
MDA-MB-231 = test: Antiproliferative activity against human MDA-MB-231 cells after 48 hrs by MTT assay; assay type: functional, cell-based; conditions: MDA-MB-231, 48 h
HepG2 [9] = test: cells; conditions: Homo sapiens, HepG2, 24 h
Description: Antiproliferative activity against human HepG2 cells after 24 hrs by MTT assay

HepG2 [10] = test: Downregulation of C-myc protein levels in human HepG2 cells after 48 hrs by Western blot analysis; assay type: functional, cell-based
HepG2 [11] = test: Cell cycle arrest in human HepG2 cells assessed as increase in accumulation of cells at G2/M phase at 10 ug/ml after 48 hrs by propidium iodide staining-based flow cytometric analysis; assay type: functional
HepG2 [12] = test: Induction of apoptosis in human HepG2 cells assessed as late apoptotic cells at 10 ug/ml after 24 hrs by Annexin V-FITC/propidium iodide staining-based flow cytometric analysis (reference value: 0%); assay type: functional
HepG2 [13] = test: cells; conditions: Homo sapiens, HepG2, 48 h
U-251 = test: Antiproliferative activity against human U251 cells after 48 hrs by MTT assay; assay type: functional, cell-based; conditions: U-251, 48 h
HepG2 [14] = test: Upregulation of vimentin protein levels in human HepG2 cells at 5 to 20 ug/ml after 48 hrs by Western blot analysis; assay type: functional, cell-based
HepG2 [15] = test: Induction of apoptosis in human HepG2 cells assessed as necrotic cells at 5 ug/ml after 24 hrs by Annexin V-FITC/propidium iodide staining-based flow cytometric analysis (reference value: 0%); assay type: functional
HepG2 [16] = test: Synergistic cell cycle arrest in human HepG2 cells assessed as decrease in accumulation of cells at G0/G1 phase at 10 ug/ml after 48 hrs in presence of sorafenib by propidium iodide staining-based flow cytometric analysis; assay type: functional
HepG2 [17] = test: Downregulation of Ki67 protein levels in human HepG2 cells after 48 hrs by Western blot analysis; assay type: functional, cell-based
HepG2 [18] = test: Induction of apoptosis in human HepG2 cells assessed as necrotic cells at 10 ug/ml after 24 hrs by Annexin V-FITC/propidium iodide staining-based flow cytometric analysis (reference value: 0%); assay type: functional
HepG2 [19] = test: Downregulation of beta-Catenin protein levels in human HepG2 cells after 48 hrs by Western blot analysis; assay type: functional, cell-based
MGC-803 = test: Antiproliferative activity against human MGC803 cells after 48 hrs by MTT assay; assay type: functional, cell-based; conditions: MGC-803, 48 h
HepG2 [20] = test: Synergistic downregulation of C-myc protein levels in human HepG2 cells at 10 ug/ml after 48 hrs in presence of sorafenib by Western blot analysis; assay type: functional, cell-based
H22 [21] = test: Synergistic antitumor activity against mouse H22 cells implanted in mouse assessed as tumor growth inhibition at 50 mg/kg, ip or ig qd administered for 10 consecutive days measured after 24 hrs post last dose in presence of sorafenib relative to control; assay type: functional; conditions: read-out: TGI
H22 [22] = test: Synergistic antitumor activity against mouse H22 cells implanted in mouse assessed as tumor growth inhibition at 100 mg/kg, ip or ig qd administered for 10 consecutive days measured after 24 hrs post last dose in presence of sorafenib relative to control; assay type: functional; conditions: read-out: TGI
H22 [23] = test: Antitumor activity against mouse H22 cells implanted in mouse assessed as tumor growth inhibition at 150 mg/kg, ig qd administered for 10 consecutive days measured after 24 hrs post last dose relative to control; assay type: functional; conditions: H22, po, read-out: TGI
HepG2 [24] = test: Antiproliferative activity against human HepG2 cells after 72 hrs by MTT assay; assay type: functional, cell-based; conditions: HepG2, 72 h
H22 [25] = test: Antitumor activity against mouse H22 cells implanted in mouse assessed as tumor growth inhibition at 100 mg/kg, ig qd administered for 10 consecutive days measured after 24 hrs post last dose relative to control; assay type: functional; conditions: H22, po, read-out: TGI
HepG2 [26] = test: Synergistic downregulation of Ki67 protein levels in human HepG2 cells at 10 ug/ml after 48 hrs in presence of sorafenib by Western blot analysis; assay type: functional, cell-based
HepG2 [27] = test: Induction of apoptosis in human HepG2 cells assessed as late apoptotic cells at 5 ug/ml after 24 hrs by Annexin V-FITC/propidium iodide staining-based flow cytometric analysis (reference value: 0%); assay type: functional
HepG2 [28] = test: Induction of apoptosis in human HepG2 cells assessed as viable cells at 5 ug/ml after 24 hrs by Annexin V-FITC/propidium iodide staining-based flow cytometric analysis (reference value: 99.82%); assay type: functional; conditions: HepG2, 24 h, read-out: Activity
H22 [29] = test: Antitumor activity against mouse H22 cells implanted in mouse assessed as tumor growth inhibition at 150 mg/kg, ip qd administered for 10 consecutive days measured after 24 hrs post last dose relative to control; assay type: functional; conditions: read-out: TGI
HepG2 [30] = test: Induction of apoptosis in human HepG2 cells assessed as viable cells at 10 ug/ml after 24 hrs by Annexin V-FITC/propidium iodide staining-based flow cytometric analysis (reference value: 99.82%); assay type: functional; conditions: HepG2, 24 h, read-out: Activity
HeLa = test: cells; conditions: Homo sapiens, 48 h
HepG2 [31] = test: Downregulation of cyclin D1 protein levels in human HepG2 cells after 48 hrs by Western blot analysis; assay type: functional, cell-based
H22 [32] = test: Antitumor activity against mouse H22 cells implanted in mouse assessed as tumor growth inhibition at 100 mg/kg, ip qd administered for 10 consecutive days measured after 24 hrs post last dose relative to control; assay type: functional; conditions: read-out: TGI
HepG2 [33] = test: Induction of apoptosis in human HepG2 cells assessed as early apoptotic cells at 5 ug/ml after 24 hrs by Annexin V-FITC/propidium iodide staining-based flow cytometric analysis (reference value: 0.18%); assay type: functional
HepG2 [34] = test: Cell cycle arrest in human HepG2 cells assessed as decrease in accumulation of cells at G0/G1 phase at 10 ug/ml after 48 hrs by propidium iodide staining-based flow cytometric analysis; assay type: functional
HepG2 [35] = test: Synergistic upregulation of vementin protein levels in human HepG2 cells at 10 ug/ml after 48 hrs in presence of sorafenib by Western blot analysis; assay type: functional, cell-based
H22 [36] = test: Antitumor activity against mouse H22 cells implanted in mouse assessed as tumor growth inhibition at 50 mg/kg, ig qd administered for 10 consecutive days measured after 24 hrs post last dose relative to control; assay type: functional; conditions: H22, po, read-out: TGI
HepG2 [37] = test: Synergistic downregulation of beta-catenin protein levels in human HepG2 cells at 10 ug/ml after 48 hrs in presence of sorafenib by Western blot analysis; assay type: functional, cell-based
HepG2 [38] = test: Synergistic growth inhibition against human HepG2 cells assessed as fold change in sorafenib IC50 at 10 ug/ml after 24 hrs by MTT assay; assay type: functional
HepG2 [39] = test: Synergistic induction of apoptosis in human HepG2 cells assessed as late apoptotic cells at 10 ug/ml after 24 hrs in presence of sorafenib by Annexin V-FITC/propidium iodide staining-based flow cytometric analysis (reference value: 0%); assay type: functional
HepG2 [40] = test: Synergistic induction of apoptosis in human HepG2 cells assessed as viable cells at 10 ug/ml after 24 hrs in presence of sorafenib by Annexin V-FITC/propidium iodide staining-based flow cytometric analysis (reference value: 99.82%); assay type: functional; conditions: HepG2, 24 h, read-out: Activity

IC50 (SMMC-7721): 18.6 µg/mL (≈ 32.2 µM) | IC50 (MDA-MB-231): 15.6 µg/mL (≈ 27 µM) | IC50 (HepG2 [9]): 16.8 µg/mL (≈ 29.1 µM) | IC50 (HepG2 [13]): 17.2 µM | IC50 (U-251): 10.1 µg/mL (≈ 17.5 µM) | IC50 (MGC-803): 16.6 µM | IC50 (HepG2 [24]): 6.7 µg/mL (≈ 11.6 µM) | IC50 (HeLa): 26.5 µM
SMILES: COc1cc(NC(=O)Nc2ccc(Cl)c(C(F)(F)F)c2)c2c(c1O)-c1c(OC)c(OC)cc3c1[C@H](C2)N(C)CC3
Activity (HepG2 [1]): 3.11% | fold change (FC) (HepG2 [2]): 1.25 | fold change (FC) (HepG2 [3]): 0.91 | inhibition in vivo at 50 mg/kg (H22 [4]): 40.3% | Activity (HepG2 [5]): 0.06% | Activity (HepG2 [6]): 44.33% | Activity (HepG2 [7]): Active | inhibition in vivo at 150 mg/kg (H22 [8]): 70.6% | Activity (HepG2 [10]): Dose-dependent effect | Activity (HepG2 [11]): Active | Activity (HepG2 [12]): 8.78% | Activity (HepG2 [14]): Active | Activity (HepG2 [15]): 0.07% | Activity (HepG2 [16]): Active | Activity (HepG2 [17]): Dose-dependent effect | Activity (HepG2 [18]): 0.04% | Activity (HepG2 [19]): Dose-dependent effect | Activity (HepG2 [20]): Active | inhibition in vivo at 50 mg/kg (H22 [21]): 63.1% | inhibition in vivo at 100 mg/kg (H22 [22]): 65.1% | inhibition in vivo at 150 mg/kg (H22 [23]): 53.4% | inhibition in vivo at 100 mg/kg (H22 [25]): 48.2% | Activity (HepG2 [26]): Active | Activity (HepG2 [27]): 2.14% | viability at 5 µg/mL (HepG2 [28]): 91% | inhibition in vivo at 150 mg/kg (H22 [29]): 50.8% | viability at 10 µg/mL (HepG2 [30]): 88.1% | Activity (HepG2 [31]): Dose-dependent effect | inhibition in vivo at 100 mg/kg (H22 [32]): 46.3% | Activity (HepG2 [33]): 6.8% | Activity (HepG2 [34]): Active | Activity (HepG2 [35]): inactive | inhibition in vivo at 50 mg/kg (H22 [36]): 40.1% | Activity (HepG2 [37]): Active | fold change (FC) (HepG2 [38]): 2.04 | Activity (HepG2 [39]): 19.34% | viability at 10 µg/mL (HepG2 [40]): 36.3%
